Assay results from patent US20090030088A1, “Therapeutic benefits of gossypol, 6-methoxy gossypol, and 6,6'-dimothxy gossypol” (Clemson University, priority 2007, published 2009).

How the values were obtained:
plasmid DNA = test: DNA strand scission assay (H2O2/UV hydroxyl radicals); parameters: species or system E. coli; settings: no oxidative stress
Protocol: Analysis of DNA Strand Breakage. The DNA strand scission assay was performed as described by Keum et al., (11) with minor modifications. The plasmid DNA was prepared and purified from E. coli cultures by the method (12). The reaction mixture (15 μL) contained 10 mM Tris-HCl, 1 mM EDTA buffer (pH 8.0), plasmid DNA (1 μL), and H2O2 (0.04 M). Gossypol and methoxy gossypol derivatives dissolved in DMSO at the defined concentrations were added prior to H2O2 addition. Hydroxyl radicals were generated by irradiation of the reaction mixture at a distance of 30 cm with a 12 W UV lamp. After incubation at room temperature for 30 min, the reaction was stopped by adding a loading buffer (0.25% bromophenol blue tracking dye and 40% sucrose), and analyzed by 1% agarose gel electrophoresis. The gel was visualized by staining with ethidium bromide, and photographed on a transiluminator (Biorad).

Trypanosome brucei cells = test: Anti-trypanosomal activity, relative cell viability by flow cytometry; type: cell-based
Protocol: Anti-trypanosomal activities. Trypanosome brucei cells were grown in HMI-9 medium supplemented with 10% heat-inactivated fetal bovine serum and cultured as described by (13). Prior to treatment, 200 μL of the cells were seeded into 96-well tissue culture plate and treated with 2 μL of gossypol or methoxy gossypol derivatives dissolved in DMSO. After 24 hour incubation at 37° C. with 5% CO2 and 90-100% relative humidity, the cells were counted on a Becton Dickinson FACScan flow Cytometer, and the relative cell viability was calculated by comparing the vital cell number with control wells treated only with DMSO. Statistical Analysis. Each experiment was done at least three times, mean values were average of the triplicates, and the data were subjected to the analysis of variance (ANOVA).

[1] = DPPH free radical scavenging assay; settings: for concentration to scavenge 50% free radicals (IC50 value): DPPH in DCM, 30 min
Protocol: DPPH Free Radical Scavenging Assay. Scavenging activities on DPPH free radicals by gossypol and methoxy gossypol derivatives were determined according to the method of (9) with slight modification. The reaction mixture was made by mixing 0.4 mL of sample solution in DCM and same volume of 0.25 mM DPPH in DCM, shaken vigorously, incubated for 30 min in the dark at room temperature, and measured spectrophotometrically at 517 nm. BHT, a common used antioxidant, was used as a standard for comparison. The lower absorbance of reaction mixture indicated higher free radical scavenging activity, and the reduction of DPPH free radicals was calculated as following: […]

[2] = tested on: SiHa (cervical cancer cell line); test: Cancer cell proliferation assay (CellTiter 96), SiHa; type: cell-based; settings: 10 ppm
Protocol: (§1) Anticancer Activities. Three cancer cell lines, MCF-7 (human breast cancer cell line), Caco-2 (human colon cancer cell line) and SiHa (cervical cancer cell line) were purchased from American Type Culture Collection (ATCC) (Rockville, Md.). MCF-7 and SiHa were cultured in RPMI-1640 with L-glutamine (2 mM), sodium pyruvate (1 mM), penicillin (100 unit/mL), streptomycin (0.1 mg/mL), 0.1 mM non-essential amino acids, 2.0 g/L sodium bicarbonate and 10% newborn calf serum. For Caco-2 cells, 10% fetal bovine serum was added instead of 10% newborn calf serum. All cell lines were incubated at 37° C. with 5% CO2 and 90-100% relative humidity. Medium renewal was carried out 2-3 times per week, and cells were subcultured when they were about 80-90% confluence.
(§2) Prior to chemical treatment, 10^4 cells/well (100 μL) were seeded into a 96-well tissue culture plate, and allowed to attach for 24 hours, then treated with defined concentrations of the tested chemicals in DMSO. Negative controls were cells treated with DMSO only, and DMSO concentration was kept 2% in each well. After 24 hour incubation, cell proliferation was determined using the CellTiter 96® aqueous nonradioactivity cell proliferation assay according to the manufacture's recommendations (Promega, Madison, Wis.) and recorded on universal EL800 Bio-Tek microplate reader at 490 nm.

[3] = tested on: MCF-7 (human breast cancer cell line); test: Cancer cell proliferation assay (CellTiter 96), MCF-7; type: cell-based; settings: 10 ppm
Protocol: as §1, §2

[4] = tested on: Caco-2 (human colon cancer cell line); test: Cancer cell proliferation assay (CellTiter 96), Caco-2; type: cell-based; settings: 10 ppm
Protocol: as §1, §2

SMILES | DNA damage by the presence of the chemical alone (plasmid DNA) | inhibition at 1 ppm (Trypanosome brucei cells; 24 h, read-out: inhibition of trypanosome cell growth) | free radicals scavenged ([1]; BHT at 1000 ppm) | free radicals scavenged ([1]; BHT at 1500 ppm) | concentration to scavenge 50% free radicals (IC50 value) [1] | free radicals scavenged ([1]; compound at 20 ppm) | cancer inhibitive activity compared with gossypol [2] | cancer inhibitive activity compared with gossypol [3] | cancer inhibitive activity compared with gossypol [4] | inhibition of trypanosome cell growth (Trypanosome brucei cells; 1 ppm, 24 hour incubation)
Cc1cc2c(C(C)C)c(O)c(O)c(C=O)c2c(O)c1-c1c(C)cc2c(C(C)C)c(O)c(O)c(C=O)c2c1O [gossypol] | did not cause the DNA damage | 40% | – | – | – | – | – | – | – | –
Cc1cc(C(C)(C)C)c(O)c(C(C)(C)C)c1 [BHT, butylated hydroxytoluene, reference compound] | – | – | ~60% | 75% | – | – | – | – | – | –
COc1c(O)c(C=O)c2c(O)c(-c3c(C)cc4c(C(C)C)c(O)c(O)c(C=O)c4c3O)c(C)cc2c1C(C)C [6-methoxy gossypol] | did not cause the DNA damage | – | – | – | 16.4 ppm | 60% | higher cancer inhibitive activity than gossypol | higher cancer inhibitive activity than gossypol | higher cancer inhibitive activity than gossypol | 40%
COc1c(O)c(C=O)c2c(O)c(-c3c(C)cc4c(C(C)C)c(OC)c(O)c(C=O)c4c3O)c(C)cc2c1C(C)C [6,6′-dimethoxy gossypol] | – | – | – | – | 16.8 ppm | 60% | higher cancer inhibitive activity than gossypol | higher cancer inhibitive activity than gossypol | higher cancer inhibitive activity than gossypol | –
